We go through 12 molecules from patent US9085606B2, “Beta amino acid derivatives as integrin antagonists” (Saint Louis University, priority 2012, dated 2015).

Experiment [1] deals with T1, Recombinant human integrin αvβ5 (Homo sapiens, UniProt P06756+P18084).
T1 construct: purchased R&D Systems 2528-AV
Description: Solid Phase Receptor Assay for αvβ5 Function. As to conditions: binding to vitronectin-coated plate; read-out: αvβ5 SPRA IC50. As for the experimental part: Solid Phase Receptor Assay for αvβ5 Function.
(§1) Wells were washed 3 times with 150 μL TBS+ and 150 μL of blocking buffer (TBS+ with 1% bovine serum albumin, Sigma A7906) were added. The plate was incubated for 1 hr at 37° C. and then washed 3× with TBS+ buffer. […] Compounds were diluted 1:100 into the integrin solution and then 50 μL added to empty wells of the washed vitronectin-coated plate according to a standard template with each sample repeated in triplicate. After incubation for two hours at room temperature, the plate was washed 3× with 150 μL of TBS+ buffer. To each well, 50 μL of biotinylated anti-αv antibody (R&D Systems, BAF1219) at 0.5 μg/mL in TBS+/0.1% BSA at 0.5 μg/mL were added and the plate covered and incubated for 1 hr at room temperature. After washing the plate 3× with 150 μL of TBS+ buffer, 50 μL of streptavidin-conjugated horseradish peroxidase (R&D Systems DY998) diluted in TBS+ blocking buffer were added to the wells and the plate incubated for 20 min at room temperature. The plate was washed 3× with TBS+ buffer followed by 50 μL of TMB substrate (Sigma T4444) added to each well and the plate incubated for 20 min at room temperature. The reaction was optionally stopped with 25 μL of Stop Solution (Sigma S5689). Plates were read by colorimetric detection at 650 nm wavelength using a Tecan Safire II plate reader.

Experiment [2] concerns the target T2, Recombinant human integrin αvβ6 (Homo sapiens, UniProt P06756+P18564).
T2 construct: purchased R&D Systems 3817-AV
Put plainly: Solid Phase Receptor Assay for αvβ6 Function. As to conditions: binding to LAP-coated plate; read-out: αvβ6 SPRA IC50. As for the experimental part:
Solid Phase Receptor Assay for αvβ6 Function.
as §1, with “150 μL TBS+, and 150” for “150 μL TBS+ and 150”, “at 37° C., and then” for “at 37° C. and then”, “the washed LAP-coated plate according” for “the washed vitronectin-coated plate according”, “TBS+/0.1% BSA were added” for “TBS+/0.1% BSA at 0.5 μg/mL were added”, “the plate was covered and” for “the plate covered and”, “peroxidase (R&D Systems, DY998) diluted” for “peroxidase (R&D Systems DY998) diluted”

For experiment [3], the target named is T3, Recombinant human integrin αvβ1 (Homo sapiens, UniProt P05556+P06756).
T3 construct: purchased R&D Systems 6579-AV
T3 sequence (P06756 31-992 limits assumed): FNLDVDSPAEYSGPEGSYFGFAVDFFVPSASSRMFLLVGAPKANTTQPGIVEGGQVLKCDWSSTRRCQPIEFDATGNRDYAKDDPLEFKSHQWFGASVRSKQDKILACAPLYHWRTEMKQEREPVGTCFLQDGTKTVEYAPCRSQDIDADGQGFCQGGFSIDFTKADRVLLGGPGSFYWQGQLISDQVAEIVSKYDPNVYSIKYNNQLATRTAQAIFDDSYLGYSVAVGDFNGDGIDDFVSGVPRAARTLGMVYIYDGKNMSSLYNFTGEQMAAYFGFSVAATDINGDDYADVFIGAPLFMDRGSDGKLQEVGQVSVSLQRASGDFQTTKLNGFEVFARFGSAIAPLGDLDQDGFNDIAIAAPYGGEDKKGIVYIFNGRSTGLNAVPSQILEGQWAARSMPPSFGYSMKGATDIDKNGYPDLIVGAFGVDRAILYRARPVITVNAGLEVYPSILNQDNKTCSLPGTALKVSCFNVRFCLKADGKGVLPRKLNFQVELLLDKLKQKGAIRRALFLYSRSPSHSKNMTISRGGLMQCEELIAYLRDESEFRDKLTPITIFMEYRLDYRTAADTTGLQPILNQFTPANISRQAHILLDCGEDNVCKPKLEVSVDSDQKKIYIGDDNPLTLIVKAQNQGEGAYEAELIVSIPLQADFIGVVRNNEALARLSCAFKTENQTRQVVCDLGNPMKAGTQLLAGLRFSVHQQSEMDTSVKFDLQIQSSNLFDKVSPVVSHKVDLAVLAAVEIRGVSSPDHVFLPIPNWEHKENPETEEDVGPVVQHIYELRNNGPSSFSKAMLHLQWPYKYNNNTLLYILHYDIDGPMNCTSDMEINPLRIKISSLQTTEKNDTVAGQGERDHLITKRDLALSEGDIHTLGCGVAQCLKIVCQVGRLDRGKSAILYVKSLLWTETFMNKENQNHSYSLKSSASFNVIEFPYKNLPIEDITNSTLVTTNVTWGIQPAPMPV
T3 sequence (P05556 21-728 limits assumed): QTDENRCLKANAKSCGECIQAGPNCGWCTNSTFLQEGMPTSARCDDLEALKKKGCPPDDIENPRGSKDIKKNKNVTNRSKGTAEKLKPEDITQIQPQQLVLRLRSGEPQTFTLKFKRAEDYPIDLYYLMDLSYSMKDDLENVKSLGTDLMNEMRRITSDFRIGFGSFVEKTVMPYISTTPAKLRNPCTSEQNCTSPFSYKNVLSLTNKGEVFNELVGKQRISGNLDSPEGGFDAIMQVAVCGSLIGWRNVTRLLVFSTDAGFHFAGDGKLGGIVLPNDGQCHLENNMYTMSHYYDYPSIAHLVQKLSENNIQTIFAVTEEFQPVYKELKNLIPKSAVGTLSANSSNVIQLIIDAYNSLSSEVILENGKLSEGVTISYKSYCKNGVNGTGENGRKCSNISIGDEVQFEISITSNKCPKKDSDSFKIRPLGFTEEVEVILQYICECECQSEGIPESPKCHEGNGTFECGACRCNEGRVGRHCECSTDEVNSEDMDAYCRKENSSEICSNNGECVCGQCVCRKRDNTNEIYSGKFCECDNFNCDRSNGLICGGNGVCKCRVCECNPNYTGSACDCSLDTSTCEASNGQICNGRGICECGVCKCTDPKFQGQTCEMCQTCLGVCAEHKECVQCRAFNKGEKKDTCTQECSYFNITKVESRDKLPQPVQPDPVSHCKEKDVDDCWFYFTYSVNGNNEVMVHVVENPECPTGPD
Description: Solid Phase Receptor Assay for αvβ1 Function. As to conditions: binding to fibronectin-coated plate; read-out: αvβ1 SPRA IC50. As for the experimental part: Solid Phase Receptor Assay for αvβ1 Function.
Wells were washed 3 times with 150 μl TBS+ and 150 μL of blocking buffer (TBS+ with 1% bovine serum albumin, Sigma A7906) were added. The plate was incubated for 1 hr at 37° C. and then washed 3× with TBS+ buffer. […] Compounds were diluted 1:100 into the integrin solution and 50 μL added to empty wells of the washed fibronectin-coated plate according to a standard template with each sample repeated in triplicate. After incubation for two hours at room temperature, the plate was washed 3× with 150 μL of TBS+ buffer. To each well, 50 μL of biotinylated anti-αv antibody (R&D Systems, BAF1219) at 1 μg/mL in TBS+/0.1% BSA were added and the plate covered and incubated for 1 hr at room temperature. After washing the plate 3× with 150 μL of TBS+ buffer, 50 μL of streptavidin-conjugated horseradish peroxidase (R&D Systems, DY998) diluted in TBS+ blocking buffer were added to the wells and the plate incubated for 20 min at room temperature. The plate was washed 3× with TBS+ buffer followed by 50 μL of TMB substrate (Sigma, T4444) added to each well and the plate incubated for 20 min at room temperature. The reaction was optionally stopped with 25 μL of Stop Solution (Sigma S5689). Plates were read by colorimetric detection at 650 nm wavelength using a Tecan Safire II plate reader.

Experiment [4] deals with T4, Recombinant human integrin αvβ3 (Homo sapiens, UniProt P05106+P06756).
T4 construct: purchased R&D Systems 3050-AV
T4 sequence (P06756 31-992 limits assumed): as the sequence (P06756 31-992 limits assumed) above
T4 sequence (P05106 27-718 limits assumed): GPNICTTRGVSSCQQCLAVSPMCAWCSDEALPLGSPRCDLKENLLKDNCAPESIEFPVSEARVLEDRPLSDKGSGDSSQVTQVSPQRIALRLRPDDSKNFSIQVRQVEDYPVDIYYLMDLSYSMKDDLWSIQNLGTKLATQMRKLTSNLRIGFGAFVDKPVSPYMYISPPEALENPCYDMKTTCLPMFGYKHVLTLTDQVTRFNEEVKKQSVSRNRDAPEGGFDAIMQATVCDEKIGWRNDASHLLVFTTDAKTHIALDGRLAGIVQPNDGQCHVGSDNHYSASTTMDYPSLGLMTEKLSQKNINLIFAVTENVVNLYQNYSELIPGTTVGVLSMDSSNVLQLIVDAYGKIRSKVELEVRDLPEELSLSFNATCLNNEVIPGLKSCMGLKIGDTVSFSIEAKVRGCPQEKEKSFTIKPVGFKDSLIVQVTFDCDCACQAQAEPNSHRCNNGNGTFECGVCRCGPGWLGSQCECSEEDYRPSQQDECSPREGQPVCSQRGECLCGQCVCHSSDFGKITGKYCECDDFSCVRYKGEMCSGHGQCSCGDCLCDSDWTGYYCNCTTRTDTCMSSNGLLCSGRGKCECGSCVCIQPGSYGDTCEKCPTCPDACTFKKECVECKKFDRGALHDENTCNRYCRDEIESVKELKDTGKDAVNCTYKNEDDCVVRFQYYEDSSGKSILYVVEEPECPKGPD
Description: Solid Phase Receptor Assay for αvβ3 Function. Particulars: binding to vitronectin-coated plate; read-out: αvβ3 SPRA IC50. Here is the method:
Solid Phase Receptor Assay for αvβ3 Function.
Wells were washed 3 times with 150 μL TBS+ and 150 μL of blocking buffer (TBS+ with 1% bovine serum albumin, Sigma A7906) were added. The plate was incubated for 1 hr at 37° C. and then washed 3× with TBS+ buffer. […] Compounds were diluted 1:100 into the integrin solution and then 50 μL added to empty wells of the washed vitronectin-coated plate according to a standard template with each sample repeated in triplicate. After incubation for two hours at room temperature, the plate was washed 3× with 150 μL of TBS+ buffer. To each well, 50 μL of biotinylated anti-αv antibody (R&D Systems, BAF1219) at 0.5 μg/mL in TBS+/0.1% BSA were added and the plate covered and incubated for 1 hr at room temperature. After washing the plate 3× with 150 μL of TBS+ buffer, 50 μL of streptavidin-conjugated horseradish peroxidase (R&D Systems, DY998) diluted in TBS+ blocking buffer were added to the wells and the plate incubated for 20 min at room temperature. The plate was washed 3× with TBS+ buffer followed by 50 μL of TMB substrate (Sigma, T4444) added to each well and the plate was incubated for 20 min at room temperature. The reaction was optionally stopped with 25 μL of Stop Solution (Sigma, S5689). Plates were read by colorimetric detection at 650 nm wavelength using a Tecan S afire II plate reader.

T2 sequence (P06756 31-992 limits assumed): as the sequence (P06756 31-992 limits assumed) above
T2 sequence (P18564 22-707 limits assumed): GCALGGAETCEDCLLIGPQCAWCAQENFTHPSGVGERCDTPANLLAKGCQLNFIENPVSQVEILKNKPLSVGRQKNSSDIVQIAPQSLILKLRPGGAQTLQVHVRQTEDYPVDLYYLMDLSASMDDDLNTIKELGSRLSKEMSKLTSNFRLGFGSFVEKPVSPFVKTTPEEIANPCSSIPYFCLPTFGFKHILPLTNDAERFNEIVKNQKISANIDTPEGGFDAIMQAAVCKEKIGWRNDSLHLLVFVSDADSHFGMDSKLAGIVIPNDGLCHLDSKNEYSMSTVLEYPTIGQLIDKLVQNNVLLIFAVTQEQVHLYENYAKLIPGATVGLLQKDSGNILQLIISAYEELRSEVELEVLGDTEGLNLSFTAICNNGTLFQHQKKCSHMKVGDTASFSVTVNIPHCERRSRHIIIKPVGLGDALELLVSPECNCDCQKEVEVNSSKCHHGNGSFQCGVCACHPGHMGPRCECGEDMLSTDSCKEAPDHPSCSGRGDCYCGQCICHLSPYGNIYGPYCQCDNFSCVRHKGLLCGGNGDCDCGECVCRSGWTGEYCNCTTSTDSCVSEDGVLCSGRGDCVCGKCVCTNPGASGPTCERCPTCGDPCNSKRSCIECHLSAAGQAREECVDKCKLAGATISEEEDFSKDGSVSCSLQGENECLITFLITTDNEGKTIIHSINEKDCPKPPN
T1 sequence (P06756 31-992 limits assumed): as the sequence (P06756 31-992 limits assumed) above
T1 sequence (P18084 24-719 limits assumed): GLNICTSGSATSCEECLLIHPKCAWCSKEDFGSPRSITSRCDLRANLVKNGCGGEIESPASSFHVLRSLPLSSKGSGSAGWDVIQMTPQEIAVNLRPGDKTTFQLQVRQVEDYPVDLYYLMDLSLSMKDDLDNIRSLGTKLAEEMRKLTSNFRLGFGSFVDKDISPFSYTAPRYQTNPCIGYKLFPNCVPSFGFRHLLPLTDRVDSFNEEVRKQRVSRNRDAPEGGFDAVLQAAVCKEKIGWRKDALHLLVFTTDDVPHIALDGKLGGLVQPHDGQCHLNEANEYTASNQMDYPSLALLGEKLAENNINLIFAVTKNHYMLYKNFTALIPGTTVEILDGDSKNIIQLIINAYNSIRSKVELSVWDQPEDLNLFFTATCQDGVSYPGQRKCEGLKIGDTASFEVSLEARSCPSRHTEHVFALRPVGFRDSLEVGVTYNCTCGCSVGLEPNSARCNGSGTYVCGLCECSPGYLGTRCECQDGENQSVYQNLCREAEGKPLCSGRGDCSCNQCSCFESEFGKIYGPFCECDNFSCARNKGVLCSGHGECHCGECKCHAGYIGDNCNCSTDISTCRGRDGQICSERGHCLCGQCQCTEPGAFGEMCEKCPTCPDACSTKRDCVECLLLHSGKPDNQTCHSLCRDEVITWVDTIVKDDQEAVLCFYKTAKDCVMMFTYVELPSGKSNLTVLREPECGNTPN

In general, IC50 refers to the midpoint of a concentration-inhibition curve. Turning to `CC(C)(C)c1cc(Br)c(O)c([C@H](CC(=O)O)NC(=O)CNC(=O)c2cc(O)cc(NC3=NCC(O)CN3)c2)c1` (stereo partly drawn) [Example 1, (3S)-3-(3-bromo-5-(tert-butyl)-2-hydroxyphenyl)-3-(2-(3-hydroxy-5-((5-hydroxy-1,4,5,6-tetrahydropyrimidin-2-yl)amino)benzamido)acetamido)propanoic acid], the IC50 in experiment [1] worked out at 47 nM; in experiment [2], 0.4 nM; in experiment [3], 2.1 nM; in experiment [4], 5.1 nM.
On the same counts, the results for `CC(C)(C)c1cc(Br)cc([C@H](CC(=O)O)NC(=O)CNC(=O)c2cc(O)cc(NC3=NCC(O)CN3)c2)c1O` (stereo partly drawn) [Example 2, (3S)-3-(5-bromo-3-(tert-butyl)-2-hydroxyphenyl)-3-(2-(3-hydroxy-5-((5-hydroxy-1,4,5,6-tetrahydropyrimidin-2-yl)amino)benzamido)acetamido)propanoic acid] are 1 nM, 0.7 nM, 2.2 nM and 1.8 nM.
As to `CC(C)(O)c1cc(Br)cc([C@H](CC(=O)O)NC(=O)CNC(=O)c2cc(O)cc(NC3=NCC(O)CN3)c2)c1` (stereo partly drawn) [Example 3, (3S)-3-(3-bromo-5-(2-hydroxypropan-2-yl)phenyl)-3-(2-(3-hydroxy-5-((5-hydroxy-1,4,5,6-tetrahydropyrimidin-2-yl)amino)benzamido)acetamido)propanoic acid], the IC50 in experiment [1] came out at 0.7 nM; in experiment [2], 0.7 nM; in experiment [3] it was 2.2 nM; in experiment [4], 2 nM.
For the molecule `CC(C)(O)c1cc(Cl)cc([C@H](CC(=O)O)NC(=O)CNC(=O)c2cc(O)cc(NC3=NCC(O)CN3)c2)c1` (stereo partly drawn) [Example 4, (3S)-3-(3-chloro-5-(2-hydroxypropan-2-yl)phenyl)-3-(2-(3-hydroxy-5-((5-hydroxy-1,4,5,6-tetrahydropyrimidin-2-yl)amino)benzamido)acetamido)propanoic acid], the IC50 in experiment [1] was found to be 0.4 nM; in experiment [2], 0.5 nM; in experiment [3] it was 1.7 nM; in experiment [4], 2.3 nM.
On the same counts, the results for `CC(C)(C)c1cc(Br)cc([C@H](CC(=O)O)NC(=O)CNC(=O)c2cccc(NC(=N)N)c2)c1` [Example 5, (S)-3-(3-bromo-5-(tert-butyl)phenyl)-3-(2-(3-guanidinobenzamido)acetamido) propanoic acid] are 1.6 nM, 0.6 nM, 3.2 nM and 2.6 nM.
On the same counts, the results for `CC(C)(C)c1cc(Br)cc([C@H](CC(=O)O)NC(=O)CNC(=O)c2cncc(NC(=N)N)c2)c1` [Example 6, (S)-3-(3-bromo-5-(tert-butyl)phenyl)-3-(2-(5-guanidinonicotinamido)acetamido) propanoic acid] are 2.2 nM, 0.5 nM, 4.7 nM and 3.5 nM.
Take `CC(C)(C)c1cc(Br)cc([C@H](CC(=O)O)NC(=O)CNC(=O)c2cccc(NC3=NCCN3)c2)c1` [Example 7, (S)-3-(3-bromo-5-(tert-butyl)phenyl)-3-(2-(3-((4,5-dihydro-1H-imidazol-2-yl)amino)benzamido)acetamido)propanoic acid]: the IC50 in experiment [1] worked out at 0.5 nM; in experiment [2], 0.2 nM; in experiment [3], 2.7 nM; in experiment [4], 1.3 nM.
The like results for `CC(C)(C)c1cc(Br)cc([C@H](CC(=O)O)NC(=O)CNC(=O)c2cncc(NC3=NCC(O)CN3)c2)c1` (stereo partly drawn) [Example 8, (3S)-3-(3-bromo-5-(tert-butyl)phenyl)-3-(2-(5-((5-hydroxy-1,4,5,6-tetrahydropyrimidin-2-yl)amino)nicotinamido)acetamido)propanoic acid] were, in that order, 0.5 nM, 0.5 nM, 3 nM and 1.5 nM.
For `CC(C)(C)c1cc(Br)cc([C@H](CC(=O)O)NC(=O)CNC(=O)c2cc(O)cc(NC3=NCCN3)c2)c1` [Example 9, (S)-3-(3-bromo-5-(tert-butyl)phenyl)-3-(2-(3-((4,5-dihydro-1H-imidazol-2-yl)amino)-5-hydroxybenzamido)acetamido)propanoic acid], the IC50 in experiment [1] was 1.2 nM; in experiment [2], 0.5 nM; in experiment [3], 2.4 nM; in experiment [4], 2.9 nM.
As to `CC(C)(C)c1cc([C@H](CC(=O)O)NC(=O)CNC(=O)c2cncc(NC(=N)N)c2)cc(C(C)(C)C)c1` [Example 10, (S)-3-(3,5-di-tert-butylphenyl)-3-(2-(5-guanidinonicotinamido)acetamido)propanoic acid], the concentration for half-maximal inhibition (IC50) was 71 nM in experiment [1], 1.2 nM in experiment [2], 2.1 nM in experiment [3] and 172 nM in experiment [4].
The like results for `CC(C)(C#N)c1cc(Br)cc([C@H](CC(=O)O)NC(=O)CNC(=O)c2cc(O)cc(NC3=NCC(O)CN3)c2)c1` (stereo partly drawn) [Example 11, (3S)-3-(3-bromo-5-(2-cyanopropan-2-yl)phenyl)-3-(2-(3-hydroxy-5-((5-hydroxy-1,4,5,6-tetrahydropyrimidin-2-yl)amino)benzamido)acetamido)propanoic acid] were, in that order, 0.7 nM, 0.5 nM, 2.8 nM and 3.4 nM.
`CC(C)(C)c1cc(C#N)cc([C@H](CC(=O)O)NC(=O)CNC(=O)c2cc(O)cc(NC3=NCC(O)CN3)c2)c1` (stereo partly drawn) [Example 12, (3S)-3-(3-(tert-butyl)-5-cyanophenyl)-3-(2-(3-hydroxy-5-((5-hydroxy-1,4,5,6-tetrahydro-pyrimidin-2-yl)amino)benzamido)acetamido)propanoic acid]: the IC50 in experiment [1] is 0.2 nM; in experiment [2] it was 0.4 nM; in experiment [3] it was 2 nM; in experiment [4], 2.8 nM.
